What was measured:
[1] = 100 kPa, Liquid; for viscosity: Capillary tube (Ostwald / Ubbelohde) method; for speed of sound: Frequency=3 MHz, Sing-around technique in a fixed-path interferometer; for mass density: Vibrating tube method
[2] = refractive index (Na D-line) (dimensionless); conditions: 100 kPa, Liquid, Standard Abbe refractometry
[3] = xn = mol fraction of the nth substance listed; conditions: 100 kPa, Liquid, x1 = 1; for viscosity: Capillary tube (Ostwald / Ubbelohde) method; for mass density: Vibrating tube method

O=C1CCCCO1 [1-oxacyclohexan-2-one]
[1]
Conditions | mass density [kg/m3] | speed of sound [m/s] | viscosity [mPa·s]
293.15 K | 1108.53 | 1587.2 | 3.68
298.15 K | 1103.96 | 1569.2 | 3.3
303.15 K | 1099.44 | 1551.3 | 2.98
308.15 K | 1094.83 | 1533.5 | 2.7
313.15 K | 1090.27 | 1516 | 2.47
318.15 K | 1085.71 | 1498.6 | 2.25
323.15 K | 1081.16 | 1481.5 | 2.09

CCCC[n+]1ccn(C)c1.O=S(=O)([N-]S(=O)(=O)C(F)(F)F)C(F)(F)F
[1]
Conditions | mass density [kg/m3]
293.15 K | 1441.61
298.15 K | 1436.67
303.15 K | 1431.58
308.15 K | 1426.62
313.15 K | 1421.58
318.15 K | 1416.58
323.15 K | 1411.54

CC1CC(=O)O1 (stereo not drawn) [4-methyl-2-oxetanone]
Conditions | mass density, [1] [kg/m3] | refractive index, [2] | speed of sound, [1] [m/s] | viscosity, [1] [mPa·s]
293.15 K | 1055.93 | 1.414 | 1371 | 1.68
298.15 K | 1050.68 | 1.412 | 1352.8 | 1.55
303.15 K | 1045.31 | 1.41 | 1334.7 | 1.48
308.15 K | 1039.85 | 1.407 | 1316.7 | 1.4
313.15 K | 1034.33 | 1.405 | 1298.8 | 1.33
318.15 K | 1028.79 | 1.403 | 1281.1 | 1.25
323.15 K | 1023.19 | 1.401 | 1263.6 | 1.18

CC1CCC(=O)O1 (stereo not drawn) [γ-valerolactone]
Conditions | mass density, [1] [kg/m3] | refractive index, [2] | speed of sound, [1] [m/s] | viscosity, [1] [mPa·s]
293.15 K | 1053.99 | 1.434 | 1447.3 | 1.99
298.15 K | 1049.28 | 1.432 | 1429.2 | 1.82
303.15 K | 1044.58 | 1.43 | 1411.3 | 1.67
308.15 K | 1039.87 | 1.427 | 1393.5 | 1.53
313.15 K | 1035.16 | 1.425 | 1375.9 | 1.42
318.15 K | 1030.45 | 1.423 | 1358.4 | 1.32
323.15 K | 1025.74 | 1.421 | 1341.2 | 1.23

CCCC[n+]1ccn(C)c1.O=S(=O)([N-]S(=O)(=O)C(F)(F)F)C(F)(F)F + CC1CCC(=O)O1
[3]
Conditions | mass density [kg/m3] | viscosity [mPa·s]
293.15 K | 1441.61 | 62.08
298.15 K | 1436.67 | 50.05
303.15 K | 1431.58 | 41.24
308.15 K | 1426.62 | 33.65
313.15 K | 1421.58 | 28.28
318.15 K | 1416.58 | 23.91
323.15 K | 1411.54 | 20.64

CCCC[n+]1ccn(C)c1.O=S(=O)([N-]S(=O)(=O)C(F)(F)F)C(F)(F)F + O=C1CCCCO1
[3]
Conditions | mass density [kg/m3] | viscosity [mPa·s]
293.15 K | 1441.61 | 62.08
298.15 K | 1436.67 | 50.05
303.15 K | 1431.58 | 41.24
308.15 K | 1426.62 | 33.65
313.15 K | 1421.58 | 28.28
318.15 K | 1416.58 | 23.91
323.15 K | 1411.54 | 20.64

CCCC[n+]1ccn(C)c1.O=S(=O)([N-]S(=O)(=O)C(F)(F)F)C(F)(F)F + CC1CC(=O)O1
[3]
Conditions | mass density [kg/m3] | viscosity [mPa·s]
293.15 K | 1441.61 | 62.08
298.15 K | 1436.67 | 50.05
303.15 K | 1431.58 | 41.24
308.15 K | 1426.62 | 33.65
313.15 K | 1421.58 | 28.28
318.15 K | 1416.58 | 23.91
323.15 K | 1411.54 | 20.64

CCCC[n+]1ccn(C)c1.O=S(=O)([N-]S(=O)(=O)C(F)(F)F)C(F)(F)F + O=C1CCCCCO1
[3]
Conditions | mass density [kg/m3] | viscosity [mPa·s]
293.15 K | 1441.61 | 62.08
298.15 K | 1436.67 | 50.05
303.15 K | 1431.58 | 41.24
308.15 K | 1426.62 | 33.65
313.15 K | 1421.58 | 28.28
318.15 K | 1416.58 | 23.91
323.15 K | 1411.54 | 20.64

O=C1CCCCCO1 [6-hexanolactone]
Conditions | mass density, [1] [kg/m3] | refractive index, [2] | speed of sound, [1] [m/s] | viscosity, [1] [mPa·s]
293.15 K | 1075.92 | 1.463 | 1567.8 | 6.63
298.15 K | 1071.67 | 1.461 | 1548.3 | 5.76
303.15 K | 1067.41 | 1.459 | 1529 | 5.04
308.15 K | 1063.15 | 1.457 | 1510 | 4.44
313.15 K | 1058.9 | 1.455 | 1491.2 | 3.95
318.15 K | 1054.65 | 1.454 | 1472.7 | 3.53
323.15 K | 1050.4 | 1.452 | 1454.5 | 3.17

From the NIST ThermoML archive (doi:10.1016/j.jct.2016.12.032)
